In patent US20020173491A1, “DAPD combination therapy with inosine monophosphate dehydrogenase inhibitor” (priority 2000, published 2002):
Where two headings read alike, the source gives them in different places.

Columns and labels:
[1] = target: HIV reverse transcriptase (HIV-RT) (Human immunodeficiency virus type 1 group M subtype B, UniProt P04585); details: cited from earlier work
xxLAI strain of HIV-1 [2] = assay: microbe, parasite or virus in culture; type: cell-based; details: Human immunodeficiency virus 1, PBMC, 72 h
Procedure: In this assay, cell supernatants were incubated on microelisa wells coated with antibodies to HIV-1 p24 core antigen. Subsequently, anti-HIV-1 conjugate labeled with horseradish peroxidase was added. The labeled antibody bound to the solid phase antibody/antigen complexes previously formed. Addition of the tetramethylbenzidine substrate results in blue color formation. The color turned yellow when the reaction is stopped. The plates were then analyzed on a plate reader set at 490 nm. The absorbance is a direct measurement of the amount of HIV-1 produced in each well and a decrease in color indicates decreased viral production. […] PBMC were obtained from HIV-1 negative donors by banding on Ficoll gradients, stimulated with phytohemaglutinin (PHAP) for 48 hours prior to infection with HIV-1, and infected with virus for 4 hours at 37° C. at a MOI of 0.001. […] Plates were incubated for 3 days at 37° C. The concentration of virus in each well was determined using the NEN p24 assay. Using the absorption values of the cell controls as 100% protection and drug free, virus infected cells as 0% protection, a dose response curve is generated by plotting percent protection on the Y axis and drug concentration on the X axis. From this curve, EC50 values were determined.
Compound dilutions and assay conditions were as described above.
MPA was also tested for activity against the xxLAI strain of HIV-1 in PBMCs using a p24 based Elisa assay. In this assay, cell supernatants are incubated on microelisa wells coated with antibodies to HIV-1 p24 core antigen. Subsequently, anti-HIV-1 conjugate labeled with horse radish peroxidase is added. The labeled antibody binds to the solid phase antibody/antigen complexes previously formed. Addition of the tetramethylbenzidine substrate results in blue color formation. The color turns yellow when the reaction is stopped. The plates are then analyzed on a plate reader set at 490 nm. The absorbance is a direct measurement of the amount of HIV-1 produced in each well and a decrease in color indicates decreased viral production. Dilutions of MPA were made in cell culture media in a 96 well plate, the highest concentration of MPA tested was 1 μM. PBMC were obtained from HIV-1 negative donors by banding on Ficoll gradients, stimulated with phytohemaglutinin (PHAP) for 48 hours prior to infection with HIV-1, and infected with virus for 4 hours at 37° C. at a MOI of 0.001. Infected cells were seeded into 96 well plates containing 4-fold serial dilutions of MPA. Plates were incubated for 3 days at 37° C. The concentration of virus in each well was determined using the NEN p24 assay. Using the absorption values of the cell controls as 100% protection and drug free, virus infected cells as 0% protection, a dose response curve is generated by plotting % protection on the Y axis and drug concentration on the X axis. From this curve EC50 values were determined.
Compound dilutions and assay conditions were as described above. The concentrations of MPA used were 1, 0.5, 0.25, 0.1, and 0.01 μM.

[3] = XTT based cytotoxicity assay, PBMC; type: cell-based; details: human, PBMCs
Procedure: The XTT (2,3-bis(2-methoxy-4-nitro-5-sulfoxyphenyl)-5[(phenylamino)carbonyl]-2H-tetrazolium hydroxide) assay is an in vitro colorimetric cyto-protection assay. Reduction of XTT by mitochondria dehydrogenases results in the cleavage of the tetrazolium ring of XTT, yielding orange formazan crystals, which are soluble in aqueous solution. […] Cells were added to the plat at 3×10^4/well (MTX) and 2×10^5/well (PBMC) and the plates were incubated for 5 days at 37° C. in a 5% CO2 incubator (addition of the cells to the plate diluted the compound to a final high concentration of 1 mM). At the end of the 5-day incubation, XTT was added to each well and incubated at 37° C. for 3 hours followed by the addition of acidified isopropanol. The plate was read at 450 nm in a 96 well plate reader. A dose response curve was generated using the absorption values of cells grown in the absence of compound as 100% protection.
The XTT (2,3-bis(2-methoxy-4-nitro-5-sulfophenyl)-5[(phenylamino)carbonyl]-2H-tetrazolium hydroxide) assay is an in vitro colorimetric cyto-protection assay. Reduction of XTT by mitochondria dehydrogenases results in the cleavage of the tetrazolium ring of XTT, yielding orange formazan crystals, which are soluble in aqueous solution. […] The plate was read at 450 nm in a 96 well plate reader. […]

xxLAI strain of HIV-1 [4] = assay: microbe, parasite or virus in culture; type: cell-based; details: compound alone, any of the concentrations tested (RBV up to 100 μM, MPA up to 1 μM)
Procedure: Triplicate samples of compound were tested. MT2 cells were infected with xxLAI at a multiplicity of infection (MOI) of 0.03 for 3 hours at 37° C. in 5% CO2. The infected cells were plated at 3.0×10^4/well into a 96 well plated containing drug dilutions and incubated for 5 days at 37° C. in CO2. […] This method has been modified into a susceptibility assay and has been used in a variety of in vitro antiviral tests and is readily adaptable to any system with a lytic virus (Weislow, O. S., et. al. 1989). Using the absorption values of the cell controls as 100% protection and no drug, virus infected cells as 0% protection, a dose response curve is generated by plotting % protection on the Y axis and drug concentration on the X axis. From this curve EC50 values were determined.
Assays were performed in the MT2 cell line as described above in the XXT sensitivity assay section.
MPA was tested for activity against the xxLAI strain of HIV-1 in the laboratory adapted cell line MT2. Dilutions of MPA were made in cell culture media in a 96 well plate; the highest concentration tested was 1 μM. Triplicate samples of compound were tested. MT2 cells were infected with xxLAI at a multiplicity of infection (MOI) of 0.03 for 3 hours at 37° C. in 5% CO2. The infected cells were plated at 3.0×10^4/well into a 96 well plated containing drug dilutions and incubated for 5 days at 37° C. in CO2. The antiviral activity of MPA was determined using the XTT assay described above. This method has been modified into a susceptibility assay and has been used in a variety of in vitro antiviral tests and is readily adaptable to any system with a lytic virus (Weislow, O. S., et. al. 1989). Using the absorption values of the cell controls as 100% protection and no drug, virus infected cells as 0% protection, a dose response curve is generated by plotting % protection on the Y axis and drug concentration on the X axis. From this curve EC50 values were determined.
The concentrations of MPA used were 1, 0.5, 0.25, 0.1, and 0.01 μM. Assays were performed in the MT2 cell line as described in section 3.1.

[5] = XTT based cytotoxicity assay, MT2; details: human, MT2 T-cell line, MT2 cells
Procedure: The XTT (2,3-bis(2-methoxy-4-nitro-5-sulfoxyphenyl)-5[(phenylamino)carbonyl]-2H-tetrazolium hydroxide) assay is an in vitro colorimetric cyto-protection assay. Reduction of XTT by mitochondria dehydrogenases results in the cleavage of the tetrazolium ring of XTT, yielding orange formazan crystals, which are soluble in aqueous solution. The resultant orange solution was read in a spectrophotometer at a wavelength of 450nm. […] Cells were added to the plat at 3×10^4/well (MTX) and 2×10^5/well (PBMC) and the plates were incubated for 5 days at 37° C. in a 5% CO2 incubator (addition of the cells to the plate diluted the compound to a final high concentration of 1 mM). At the end of the 5-day incubation, XTT was added to each well and incubated at 37° C. for 3 hours followed by the addition of acidified isopropanol. The plate was read at 450 nm in a 96 well plate reader. A dose response curve was generated using the absorption values of cells grown in the absence of compound as 100% protection.
MPA was tested for cytotoxicity on the laboratory adapted T-cell line MT2 and in PBMCs using a XTT based assay. […] The resultant orange solution is read in a spectrophotometer at a wavelength of 450nm. […] The plate was read at 450 nm in a 96 well plate reader. […]

HCV = details: ribavirin alone; cited from earlier work
[6] = read-out: EC50, HIV-1 replication in PBMCs, compound alone, p24, 3 days

Nc1nc2c(ncn2C2COC(COP(=O)(O)OP(=O)(O)OP(=O)(O)O)O2)c(=O)[nH]1 (stereo not drawn) [DXG-TP]
Ki [1]: 0.019 µM

COc1c(C)c2c(c(O)c1C/C=C(\C)CCC(=O)O)C(=O)OC2 [MPA, 6-(4-hydroxy-6-methoxy-7-methyl-3-oxo-5-phthalanyl)-4-methyl-4-hexanoic acid]
EC50 (xxLAI strain of HIV-1 [2]; [6]): 0.095 µM
EC50 (xxLAI strain of HIV-1 [2]; read-out: median EC50, HIV-1 replication in PBMCs, compound alone, p24, 3 days): 0.095 µM
CC50 at 5 days [3]: 4.5 µM
activity against HIV-1 in MT2 cells (xxLAI strain of HIV-1 [4]): not active
CC50 at 5 days [5]: 5.7 µM

NC(=O)c1ncn([C@@H]2O[C@H](CO)[C@@H](O)[C@H]2O)n1 [RBV, 1-β-D-ribofuranosyl-1,2,4-triazole-3-carboxamide]
EC50 (xxLAI strain of HIV-1 [2]; [6]): 20.5 µM
CC50 at 5 days [3]: > 1000 µM
effect on serum levels of HCV-RNA (HCV): does not lower
patients with serum amino transferase levels reduced to normal (HCV): 40%
activity against HIV-1 in MT2 cells (xxLAI strain of HIV-1 [4]): not active
CC50 at 5 days [5]: > 1000 µM
